Counter-ions that a name gives are not always drawn.
Tests used:
Panc-02 cells = test: CRT translocation to the cell membrane, flow cytometry (percent CRT+ cells); type: cell-based, murine
Experimental: Calreticulin (CRT) translocation from the ER to the cell membrane is a critical mechanistic step in ICD induction. To correlate the findings of ER and mitochondrial stress to ICD induction, murine cancer cell lines (Panc-02 pancreas and CT26 colon) were treated with 3 and assessed for cell membrane CRT translocation (FIG. 4).

L929 fibroblasts = test: Cell proliferation, 72 h IC50 (Table 3); type: cell-based, human
Description: The initial rationale for preparing complexes 1-3 (shown below) involved a systems approach to circumventing the antioxidant network that helps give solid tumors their resiliency.

HCT116 Colon = test: Cell proliferation, 72 h IC50 (Table 3); type: cell-based, human; details: read-out: 72 h IC50, 3-5 separate experiments
A549 lung cancer cells = test: Cell proliferation, 72 h IC50 (Table 3); type: cell-based, human; details: read-out: 72 h IC50, 3-5 separate experiments
[1] = test system: A549 human lung cancer cell line; test: Cell proliferation MTT assay, Example 4 (Table 8); type: cell-based; details: 72 h treatment, max DMSO 0.1%
[2] = test system: A549 human lung cancer cell line; test: Cell proliferation MTT assay, Example 3 (Table 5); type: cell-based; details: 72 h incubation
Experimental: According to previous literature reports, BSA binding can reduce the cytotoxicity of Au(I) bis-NHC complexes (Zou et al., 2014). […] The non-conjugated alcohol 1 and Auranofin were used as benchmark comparisons. Incubation was carried out for 72 h in all cases. […] A549 cells were harvested and seeded into 96-well culture plates (Costar 07-200-90) in 100 μL of culture medium. The cells were allowed to incubate overnight at 37° C. in the presence of 5% CO2. A549 cells were seeded at a density of 1500 cells/well. […] To each well of a 96 well plate was added 100 μL of the appropriate solution. […] After removal of the medium, the resulting formazan was dissolved in […] DMSO and the respective absorbances were measured at 560-650 nm using a microplate reader (Molecular Devices, Sunnyvale, CA). Absorbance values were corrected for background and then normalized to wells containing untreated cells to allow for plate-to-plate comparisons. The resulting dose response curves were subjected to linear regression analysis (Origin by OriginLab, Inc.) for determination of IC50 values. […] Maximum concentration of DMSO used is 0.1%. This concentration of DMSO was determined to be non-toxic in separate control experiments. […] The stock solution was further diluted 10-fold in RPMI media such that the maximum drug concentration used was 10 μM for the dose dependent MTT assay.

A2780 Ovarian = test: Cell proliferation, 72 h IC50 (Table 3); type: cell-based, human; details: read-out: 72 h IC50, 3-5 separate experiments
2780CP Ovarian = test: Cell proliferation, 72 h IC50 (Table 3); type: cell-based, human; details: read-out: 72 h IC50, 3-5 separate experiments
[3] = test system: CT26 mouse colorectal cancer cells; details: immunized with CT26 cells treated with oxaliplatin at 150 μM; challenged after 7 days
CT26 Colon = details: read-out: 72 h IC50, 3-5 separate experiments

SMILES | IC50 (HCT116 Colon) | IC50 (A549 lung cancer cells) | IC50 (A2780 Ovarian) | IC50 (2780CP Ovarian) | further results
CC(=O)OC[C@H]1O[C@@H]([S-])[C@H](OC(C)=O)[C@@H](OC(C)=O)[C@@H]1OC(C)=O.CCP(CC)CC.[Au+] [Auranofin] | 1.3 µM | 1.67 µM |  |  | CRT translocation to the cell membrane (Panc-02 cells; flow cytometry, 3 at 1 μM, auranofin under the same conditions): ineffective; cancer selectivity (L929 fibroblasts; L929 fibroblasts in comparison to A549 lung cancer cells): 2.5 fold; IC50 (L929 fibroblasts; read-out: 72 h IC50, L929 Fibroblasts, 72 h, 3-5 separate experiments): 4.2 µM; IC50 [1]: 2.18 µM; IC50 [2]: 2.24 µM
N.N.[Cl][Pt][Cl] [Cisplatin] |  | 1.03 µM | 0.33 µM | 7.1 µM | 
COc1cccc2c1C(=O)c1c(O)c3c(c(O)c1C2=O)C[C@@](O)(C(=O)CO)C[C@@H]3O[C@H]1C[C@H](N)[C@H](O)[C@H](C)O1 [Doxorubicin•HCl, Doxorubicin] |  |  |  |  | IC50 ([1]; Homo sapiens): 0.131 µM
O=C1[O][Pt]2([NH][C@@H]3CCCC[C@H]3[NH]2)[O]C1=O [Oxaliplatin] | 0.5 µM | 0.97 µM | 0.15 µM | 0.3 µM | concentration needed to achieve the same CRT+ signal (Panc-02 cells; same CRT+ signal as 3 at 1 μM): 300 µM; mice remaining tumor-free at the end of the study [3]: 80%; IC50 (CT26 Colon): 2 µM

From patent US12577262B2, “Functionalized gold carbene napthaquinone complexes for use in the treatment of cancer” (Board of Regents, The University of Texas System, priority 2019, dated 2026)
